According to patent US6048884A, “Amide derivatives and medicinal compositions thereof” (Yamanouchi Pharmaceutical Co., Ltd., priority 1997, dated 2000):
Structures can show the parent of a compound that is named as a salt.

Experiments:
[1] = test system: kk mice (insulin-resisting model: obesity and hyperglycemia); assay: Hypoglycemic test in kk mice (insulin sensitivity potentiating action); assay type: in vivo; conditions: oral administration of 10 mg/kg once daily for four days; blood sugar 15 to 18 hours after final administration vs level prior to administration; male kk mice, n=6; p<0.01
Description: 1. Hypoglycemic test in kk mice (insulin-resisting model: obesity and hyperglycemia) [insulin sensitivity potentiating action]:
Blood sugar levels under feeding were measured for male kk mice (sugar blood level being 200 mg/dl or more) and they were randomly divided into several groups. The drug to be tested was compulsorily administered per os once daily for four days and the blood sugar level after 15 to 18 hours from the final administration was compared with the level prior to the administration (n=6), whereupon a hypoglycemic rate (%) was calculated. Blood was collected from tail vein of the mouse using a glass capillary (previously treated with heparin), protein was removed therefrom and the amount of glucose (mg/dl) in the supernatant liquid was calorimetrically determined by a glucose oxidase method to obtain the blood sugar level.

[2] = test system: normal rats (male rats of SD-strain); assay: Sugar tolerance test in normal rats (OGTT; insulin secretion promoting action); assay type: in vivo; conditions: 10 mg/kg orally 30 minutes before glucose 2 g/kg per os; fasted male SD rats, n=4
Description: 2. Sugar tolerance test in normal rats [insulin secretion promoting action]:
Male rats of SD-strain (seven weeks age) were fasted for one night and day, randomly divided into several groups and subjected to an oral glucose tolerance test (OGTT) (n=4). The compound to be tested was orally administered at 30 minutes before administration of glucose (2 g/kg per os). Blood was collected by a heparin-treated glass syringe from abdominal artery of the rat under anesthetization with 65 mg/kg of pentbarbital, protein was removed therefrom and the amount of glucose (mg/dl) in the supernatant liquid was calorimetrically determined by a glucose oxidase method to obtain the blood sugar level. Insulin level in blood was determined by measuring the amount of insulin (ng/ml) in plasma by means of a radio-immunoassay (RIA). The result was that, when 10 mg/kg of the compound of Example 4 was administered, insulin secretion increased to an extent of three-fold in terms of AUC ratio and blood sugar level decreased to 90% as compared with that prior to the administration.

Row | Compound | hypoglycemic rate [1] | blood sugar level decreased to, as compared with that prior to the administration [2] | insulin secretion increase in terms of AUC ratio (plasma insulin, RIA) [2]
1 | O=C(Cc1csc(NCc2ccccc2)n1)Nc1ccc(CCNC[C@H](O)COc2ccccc2)cc1 [Example 1, (S)-2-(2-benzylamino-4-thiazolyl)-4'-[2-[(2-hydroxy-3-phenoxypropyl)amino]ethyl]acetanilide] | 47% | – | –
2 | O=C(Cc1csc(Nc2cccc(F)c2)n1)Nc1ccc(CCNC[C@H](O)COc2ccccc2)cc1 [Example 2-b, (S)-2-[2-(3-fluoroanilino)-4-thiazol-4-yl)-4'-[2-[(2-hydroxy-3-phenoxypropyl)amino]ethyl]acetanilide] | 52% | – | –
3 | CC(Cc1ccc(NC(=O)Cc2csc(Nc3ccccc3)n2)cc1)NC[C@H](O)COc1ccccc1 (stereo partly drawn) [Example 2-c, (S)-2-(2-anilino-4-thiazol-4-yl)-4'-{2-[(-2-hydroxy-3-phenoxypropyl)amino]propyl}acetanilide] | 50% | – | –
4 | O=C(Cc1csc(Nc2ccccc2)n1)Nc1ccc(CCNC[C@H](O)COc2ccccc2)cc1 [Example 4, (S)-2-(2-phenylaminothiazol-4-yl)-4'-[2-[(2-hydroxy-3-phenoxyethyl)amino]ethyl]acetanilide dihydrochloride] | 56% | 90% | three-fold
